# Assay results published in patent publication US20070167464A1, “Fungicidal mixtures” (BASF Aktiengesellschaft, priority 2004, published 2007).
# Test system: Pyrenophora teres
# Experiment: activity against net blotch of barley caused by Pyrenophora teres, 1-day-protective application
# Format: in vivo, Pyrenophora [syn. Drechslera] teres on barley seedlings
# Conditions: individual active compound, evaluated after 6 days
# Procedure: The active compounds, separately or jointly, were prepared as a stock solution comprising 0.25% by weight of active compound in acetone or DMSO. 1% by weight of the emulsifier Uniperol® EL (wetting agent having emulsifying and dispersant action based on ethoxylated alkylphenols) was added to this solution, and the mixture was diluted with water to the desired concentration.
# Use example-activity against net blotch of barley caused by Pyrenophora teres, 1-day-protective application
# Leaves of pot-grown barley seedlings were sprayed to run-off point with an aqueous suspension having the concentration of active compound stated below. 24 hours after the spray coating had dried on, the test plants were inoculated with an aqueous spore suspension of Pyrenophora[syn. Drechslera] teres, the causative agent of net blotch. The test plants were subsequently placed in a greenhouse at temperatures between 20 and 24° C. and at 95 to 100% relative atmospheric humidity. After 6 days, the extent of development of the disease was determined visually in % infection of the total leaf area.
# The visually determined percentages of infected leaf areas were converted into efficacies in % of the untreated control:
# The efficacy (E) is calculated as follows using Abbot's formula: E=(1α/β)·100 • α corresponds to the fungicidal infection of the treated plants in % and • β corresponds to the fungicidal infection of the untreated (control) plants in %
# An efficacy of 0 means that the infection level of the treated plants corresponds to that of the untreated control plants; an efficacy of 100 means that the treated plants were not infected.
# The expected efficacies of mixtures of active compounds were determined using Colby's formula (Colby, S. R. “Calculating synergistic and antagonistic responses of herbicide combinations”, Weeds, 15, 20-22, 1967) and compared with the observed efficacies.
# Colby's Formula: E=x+y−x·y/100 • E expected efficacy, expressed in % of the untreated control, when using the mixture of the active compounds A and B at the concentrations a and b • x efficacy, expressed in % of the untreated control, when using the active compound A at the concentration a
# y efficacy, expressed in % of the untreated control, when using the active compound B at the concentration b
SMILES,Efficacy in % of the untreated control (1.25 ppm in the spray liquor) [%],Efficacy in % of the untreated control (0.25 ppm in the spray liquor) [%],Efficacy in % of the untreated control (6.25 ppm in the spray liquor) [%]
"CC1CCN(c2c(-c3c(F)cc(F)cc3F)c(Cl)nc3ncnn23)CC1 [I, 5-chloro-7-(4-methylpiperidin-1-yl)-6-(2,4,6-trifluorophenyl)-[1,2,4]triazolo[1,5-a]pyrimidine]",53,,
"CC(C)OC(=O)N[C@H](C(=O)N[C@H](C)c1nc2ccc(F)cc2s1)C(C)C [II.1, isopropyl {(S)-1-[(1 R)-1-(6-fluorobenzothiazol-2-yl)ethylcarbamoyl]-2-methylpropyl}carbamate]",0,0,0
